# Read-outs that look alike come from different tables or passages of the source.
# Assays:
# [1] = Dissolving compounds to make 10 mM stock solution; assay type: physicochemical; details: deionized water or assay friendly solvents, hot water
# Protocol: Following assay establishment, the test compounds were tested for binding affinities. The concentrations selected for the experiments were chosen according to what was found for memantine in our assay. The first task was to dissolve the compounds and make up the 10 mM stock solution for further experiments. Those compounds that were made into salt format were easy to dissolve in deionized water, but the other compounds were difficult to bring into solution. Several “assay friendly” solvents have been tried, such as molecusol, acetic acid and propylene glycol followed by putting the vial into hot water.
# NMDA receptor = test: Whole-cell voltage-clamp recordings of NMDA evoked currents in hypocretin neurons (hypothalamic slices); assay type: cell-based, mouse; details: for inhibition of the peak amplitude of NMDA evoked currents: bath application, -60 mV, mean±SEM; for reversibility of inhibition of NMDA evoked currents upon washout: washout of the compound
# C57/BL6 male mice [2] = details: for # of deaths / # of extensions: 6 mice; for MES-induced death: mice
# [3] = test system: primary neurons from rat cerebral cortex; test: NMDA-induced LDH release assay in primary cortical neurons (neuroprotection); assay type: cell-based; details: for EC50: Rattus norvegicus, Primary neuron, two experiments, 300 uM NMDA + 50 μM glycine 15 minutes, LDH after 24 hours, read-out: average EC50 (±SD), NMDA-induced LDH release
# Summary of the method: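 Fetal rat (E16–E18) cortical neurons on mouse astroglial feeder layers, fed growth medium/neurobasal+B27 (1:1), used after 11–14 days. Treatments given in Locke's buffer pH 7.4 for 15 min, then cells washed; 24 h later percent LDH released = 100×secreted/(total+secreted), tetrazolium readout.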
# C57/BL6 male mice [4] = test: Rotarod test (balance and coordination, side effects)
# Protocol: The side effects of the compounds was primarily evaluated using the rotarod test, which mainly assesses the balancing and coordination of mice. The comparisons were made on fall time of the mice between the first measure (pre-treatment) and second measure taken 20 min after the drug/vehicle injection in the same group (paired t-test). […] Comparisons of the rotatod fall times after drug/vehicle dosing were made between drug treatment and control groups (unpaired t-test).
# C57/BL6 male mice [5] = test: Pentylenetetrazol (PTZ)-induced seizure/death model; assay type: in vivo, mouse; details: for # mice with L3 seizure / # mice with L4 seizure / # of deaths within 30 min: 6 mice; for # of deaths within 30 min / PTZ-induced death: PTZ 100 mg/kg; for Time to death: mice that died within 30 min
# Protocol: Although the protection against death is the key endpoint, other effects of the compounds on PTZ-induced seizures were also assessed using multiple parameters. For the mice that did die within the 30 minute observation window, the time of death was also compared. […] The seizure occurrence rate, onset time and number of level 3 (L3) seizure (repetitive seizures but the animal can still stand) and level 4 (L4) seizure (repetitive seizures and the animal loses righting) are also analyzed. The MDT compound (30 mg/kg) treated groups show a certain degree of improvement compared to control. No data from MK801 or memantine were included because the seizures occurring under these treatments are totally different from the control or MDT injected groups due to side effects (“high jumping”).
# [6] = after, 20 min after 10 mg/kg i.p.
# [7] = after, 20 min after 30 mg/kg i.p.
# [8] = before (pre-treatment), 10 mg/kg group
# [9] = before (pre-treatment), 30 mg/kg group
# [10] = 10 and 30 mg/kg i.p., 30 min observation
# [11] = NMDA 300 uM + MK801 1 uM, Plate #4, poly-lysine-coated rat neurons, GM/NB + B-27 fed, 24 hour incubation
# [12] = NMDA 300 uM + MK801 1 uM, Plate #5, astrocyte-coated rat neurons, GM fed, 24 hour incubation
# [13] = NMDA 300 uM + MK801 1 uM, astrocyte-coated rat neurons, GM/NB + B-27 fed, 24 hour incubation
# [14] = NMDA 500 μM + MK801 1 μM, astrocyte-coated rat neurons, GM/NB + B-27 fed, 21 hour incubation
# [15] = NMDA 500 uM + MK801 1 uM, poly-lysine-coated rat neurons, GM/NB + B-27 fed, 40 hour incubation
structure (smiles),measurement,setting,value
O=C(O)C12CC3CC4C5CC(CC41)CC2C5C3 [MDT-17],dissolution for 10 mM stock solution,[1],"did not go into solution, or came out with time"
O=C(O)C12CC3CC4C1CC1CC2C(C3)C4(C(=O)O)C1 [MDT-19],dissolution for 10 mM stock solution,[1],"did not go into solution, or came out with time"
O=C(O)C12CC3C4CC5(C(=O)O)CC3C(C1)C(C5)C4C2 [MDT-20],dissolution for 10 mM stock solution,[1],"did not go into solution, or came out with time"
"CC12CC3(N)CC4C5CC(CC41)CC2C5C3 [MDT-22, 1-methyl-9-aminodiamantane]",inhibition of the peak amplitude of NMDA evoked currents,NMDA receptor; 10 μM,19±3.1%
same,inhibition of the peak amplitude of NMDA evoked currents,NMDA receptor; 100 μM,45±12.1%
same,reversibility of inhibition of NMDA evoked currents upon washout,NMDA receptor,reversible
same,Extension rate,C57/BL6 male mice [2]; 10 mg/kg i.p.,1.00
same,Mortality rate,C57/BL6 male mice [2]; 10 mg/kg i.p.,0.50
same,# of deaths,C57/BL6 male mice [2]; 10 mg/kg i.p.,3
same,# of extensions,C57/BL6 male mice [2]; 10 mg/kg i.p.,6
same,Extension rate,C57/BL6 male mice [2]; 30 mg/kg i.p.,0.83
same,Mortality rate,C57/BL6 male mice [2]; 30 mg/kg i.p.,0.33
same,# of deaths,C57/BL6 male mice [2]; 30 mg/kg i.p.,2
same,# of extensions,C57/BL6 male mice [2]; 30 mg/kg i.p.,5
same,MES-induced death,C57/BL6 male mice [2]; 10 and 30 mg/kg i.p.,dose dependent reduction in MES-induced death
same,EC50,[3],56.5 ± 14.6 µM
same,Fall Time,C57/BL6 male mice [4]; [6],44.58 ± 4.58 min
same,Fall Time,C57/BL6 male mice [4]; [7],44.93 ± 5.45 min
same,Fall Time,C57/BL6 male mice [4]; [8],33.56 ± 3.91 min
same,Fall Time,C57/BL6 male mice [4]; [9],45.03 ± 6.02 min
same,# L3 per mouse,C57/BL6 male mice [5]; 10 mg/kg i.p.,2.00 ± 0.58
same,# L4 per mouse,C57/BL6 male mice [5]; 10 mg/kg i.p.,3.85 ± 2.28
same,L3 onset time,C57/BL6 male mice [5]; 10 mg/kg i.p.,2.80 ± 1.00 min
same,L3 seizure rate,C57/BL6 male mice [5]; 10 mg/kg i.p.,0.50
same,L4 onset time,C57/BL6 male mice [5]; 10 mg/kg i.p.,7.90 ± 1.70 min
same,L4 seizure rate,C57/BL6 male mice [5]; 10 mg/kg i.p.,1.00
same,Mortality rate,C57/BL6 male mice [5]; 10 mg/kg i.p.,1.00
same,# mice with L3 seizure,C57/BL6 male mice [5]; 10 mg/kg i.p.,3
same,# mice with L4 seizure,C57/BL6 male mice [5]; 10 mg/kg i.p.,6
same,# of deaths within 30 min,C57/BL6 male mice [5]; 10 mg/kg i.p.,6
same,Time to death,C57/BL6 male mice [5]; 10 mg/kg i.p.,9.60 ± 1.80 min
same,# L3 per mouse,C57/BL6 male mice [5]; 30 mg/kg i.p.,1.67 ± 0.50
same,# L4 per mouse,C57/BL6 male mice [5]; 30 mg/kg i.p.,1.17 ± 0.19
same,L3 onset time,C57/BL6 male mice [5]; 30 mg/kg i.p.,5.10 ± 2.30 min
same,L3 seizure rate,C57/BL6 male mice [5]; 30 mg/kg i.p.,1.00
same,L4 onset time,C57/BL6 male mice [5]; 30 mg/kg i.p.,10.20 ± 3.00 min
same,L4 seizure rate,C57/BL6 male mice [5]; 30 mg/kg i.p.,1.00
same,Mortality rate,C57/BL6 male mice [5]; 30 mg/kg i.p.,0.67
same,# mice with L3 seizure,C57/BL6 male mice [5]; 30 mg/kg i.p.,6
same,# mice with L4 seizure,C57/BL6 male mice [5]; 30 mg/kg i.p.,6
same,# of deaths within 30 min,C57/BL6 male mice [5]; 30 mg/kg i.p.,4
same,Time to death,C57/BL6 male mice [5]; 30 mg/kg i.p.,7.70 ± 2.10 min
same,PTZ-induced death,C57/BL6 male mice [5]; [10],a certain reduction in PTZ-induced death
"CC12CC3CC4C1CC1(N)CC2C(C3)C4(C)C1 [MDT-23, 4-amino-1,6-dimethyl-diamantane]",inhibition of the peak amplitude of NMDA evoked currents,NMDA receptor; 10 μM,11.6±4.3%
same,inhibition of the peak amplitude of NMDA evoked currents,NMDA receptor; 100 μM,22.9±9.3%
same,reversibility of inhibition of NMDA evoked currents upon washout,NMDA receptor,not reversible
same,Extension rate,C57/BL6 male mice [2]; 10 mg/kg i.p.,1.00
same,Mortality rate,C57/BL6 male mice [2]; 10 mg/kg i.p.,0.67
same,# of deaths,C57/BL6 male mice [2]; 10 mg/kg i.p.,4
same,# of extensions,C57/BL6 male mice [2]; 10 mg/kg i.p.,6
same,Extension rate,C57/BL6 male mice [2]; 30 mg/kg i.p.,1.00
same,Mortality rate,C57/BL6 male mice [2]; 30 mg/kg i.p.,0.17
same,# of deaths,C57/BL6 male mice [2]; 30 mg/kg i.p.,1
same,# of extensions,C57/BL6 male mice [2]; 30 mg/kg i.p.,6
same,MES-induced death,C57/BL6 male mice [2]; 10 and 30 mg/kg i.p.,dose dependent reduction in MES-induced death
same,EC50,[3],11.1 ± 9.3 µM
same,Fall Time,C57/BL6 male mice [4]; [6],42.98 ± 2.82 min
same,Fall Time,C57/BL6 male mice [4]; [7],31.37 ± 3.83 min
same,Fall Time,C57/BL6 male mice [4]; [8],28.63 ± 3.10 min
same,Fall Time,C57/BL6 male mice [4]; [9],39.77 ± 6.14 min
same,"rotarod fall time, pre-treatment vs 20 min after injection","C57/BL6 male mice [4]; high dose 30 mg/kg i.p., paired t-test",loss of performance
same,rotarod performance after dosing vs. control,"C57/BL6 male mice [4]; high dose 30 mg/kg i.p., unpaired t-test",statistically significant decreases in rotarod performance
same,# L3 per mouse,C57/BL6 male mice [5]; 10 mg/kg i.p.,4.67 ± 1.65
same,# L4 per mouse,C57/BL6 male mice [5]; 10 mg/kg i.p.,1.67 ± 0.49
same,L3 onset time,C57/BL6 male mice [5]; 10 mg/kg i.p.,3.00 ± 0.20 min
same,L3 seizure rate,C57/BL6 male mice [5]; 10 mg/kg i.p.,0.50
same,L4 onset time,C57/BL6 male mice [5]; 10 mg/kg i.p.,13.80 ± 4.40 min
same,L4 seizure rate,C57/BL6 male mice [5]; 10 mg/kg i.p.,1.00
same,Mortality rate,C57/BL6 male mice [5]; 10 mg/kg i.p.,0.50
same,# mice with L3 seizure,C57/BL6 male mice [5]; 10 mg/kg i.p.,3
same,# mice with L4 seizure,C57/BL6 male mice [5]; 10 mg/kg i.p.,6
same,# of deaths within 30 min,C57/BL6 male mice [5]; 10 mg/kg i.p.,3
same,Time to death,C57/BL6 male mice [5]; 10 mg/kg i.p.,14.00 ± 6.60 min
same,# L3 per mouse,C57/BL6 male mice [5]; 30 mg/kg i.p.,3.83 ± 2.44
same,# L4 per mouse,C57/BL6 male mice [5]; 30 mg/kg i.p.,1.00 ± 0.0
same,L3 onset time,C57/BL6 male mice [5]; 30 mg/kg i.p.,5.00 ± 1.90 min
same,L3 seizure rate,C57/BL6 male mice [5]; 30 mg/kg i.p.,1.00
same,L4 onset time,C57/BL6 male mice [5]; 30 mg/kg i.p.,19.80 ± 4.20 min
same,L4 seizure rate,C57/BL6 male mice [5]; 30 mg/kg i.p.,1.00
same,Mortality rate,C57/BL6 male mice [5]; 30 mg/kg i.p.,1.00
same,average time of death,"C57/BL6 male mice [5]; 30 mg/kg i.p., mice that died within 30 minute window",22 ± 2.9 min
same,# mice with L3 seizure,C57/BL6 male mice [5]; 30 mg/kg i.p.,6
same,# mice with L4 seizure,C57/BL6 male mice [5]; 30 mg/kg i.p.,6
same,# of deaths within 30 min,C57/BL6 male mice [5]; 30 mg/kg i.p.,6
same,Time to death,C57/BL6 male mice [5]; 30 mg/kg i.p.,22.00 ± 2.90 min
same,PTZ-induced death,C57/BL6 male mice [5]; [10],a certain reduction in PTZ-induced death
same,PTZ-induced death,"C57/BL6 male mice [5]; high dose 30 mg/kg i.p., 30 min observation",died within 30 minutes
"C[C@]12N[C@H](Cc3ccccc31)c1ccccc12 [MK-801, reference compound]",inhibition of the peak amplitude of NMDA evoked currents,NMDA receptor; 100 nM,58±9.4%
same,Extension rate,C57/BL6 male mice [2]; 0.5 mg/kg i.p.,0.50
same,Mortality rate,C57/BL6 male mice [2]; 0.5 mg/kg i.p.,0.50
same,MES-induced death,C57/BL6 male mice [2]; 0.5 mg/kg i.p.,little effect compared to control
same,# of deaths,C57/BL6 male mice [2]; 0.5 mg/kg i.p.,3
same,# of extensions,C57/BL6 male mice [2]; 0.5 mg/kg i.p.,3
same,% (Control Wash = 100),[3]; [11],143%
same,Secreted LDH (Avg),[3]; [11],0.62
same,Secreted/(total + secreted) (Avg),[3]; [11],15.63
same,Total LDH (Avg),[3]; [11],3.34
same,% (Control Wash = 100),[3]; [12],92%
same,Secreted LDH (Avg),[3]; [12],0.18
same,Secreted/(total + secreted) (Avg),[3]; [12],5.43
same,Total LDH (Avg),[3]; [12],3.18
same,% (Control Wash = 100),[3]; [13],241%
same,Secreted LDH (Avg),[3]; [13],0.74
same,Secreted/(total + secreted) (Avg),[3]; [13],17.39
same,Total LDH (Avg),[3]; [13],3.51
same,% (Control Wash = 100),[3]; [14],125%
same,Secreted LDH (Avg),[3]; [14],0.43
same,Secreted/(total + secreted) (Avg),[3]; [14],10.39
same,Total LDH (Avg),[3]; [14],3.71
same,% (Control Wash = 100),[3]; [15],96%
same,Secreted LDH (Avg),[3]; [15],0.36
same,Secreted/(total + secreted) (Avg),[3]; [15],11.04
same,Total LDH (Avg),[3]; [15],2.90
same,hyperactivity (side effect),C57/BL6 male mice [4]; 1 mg/kg i.p.,observed
same,Mortality rate,C57/BL6 male mice [5]; 1.0 mg/kg i.p.,0
same,PTZ-induced death,C57/BL6 male mice [5]; 1 mg/kg i.p.,full protection
same,# of deaths within 30 min,C57/BL6 male mice [5]; 1.0 mg/kg i.p.,0
